Measured values reported in patent publication US10100019B2.
Like-named read-outs stand apart in the source and are kept apart here.

How the values were obtained:
[1] = test system: H3122 cells; experiment: Cytotoxicity in non-small cell lung cancer cell line H3122 (SRB); assay type: cell-based, human; settings: H3122 cells, three days, SRB
Experimental: Particularly, 4,000 H3122 cells containing ALK enzyme were distributed in each well of a 96 well plate together with 100 μl of DMEM (Dulbecco's Modified Eagle's Medium). One day later, the compound of the present invention was added to each well at different concentrations of […]. DMSO (dimethylsulfoxide) was added to the well that was not loaded with the compound by the same amount as the compound. Three days after the addition of the compound, DMEM was eliminated. 10% TCA (trichloroacetic acid) was added to fix the cells. The wells were washed with running water three times and the live cells were stained with SRB solution (1 sulphorodamine B). Then, OD was measured to calculate the population of the live cells.

[2] = test system: H2228 cells; settings: human, 3 days
[3] = test system: H2228 cells; experiment: cells; settings: Homo sapiens, NCI-H2228, 72 h, read-out: Cytotoxicity H2228 (GI50 μM), H2228 cells, three days, SRB
[4] = molecular target: ALK WT (Homo sapiens (Human), UniProt Q9UM73); settings: read-out: ALK WT (IC50 μM); ALK enzyme, HTRF
Experimental: To measure the activity to inhibit ALK, each of the compounds prepared in examples listed in table 2 (2 μl) was loaded in a 384 well plate. Then, each of the compounds was mixed with anaplastic lymphoma kinase (ALK) enzyme (1 μl) and biotin conjugated peptide substrate (2 μl), followed by culture for 15 minutes. ATP solution (5 μl) was added thereto, followed by kinase reaction at room temperature for 30 minutes. […] Upon completion of the reaction, one hour culture was performed, followed by analysis using homogeneous time-resolved fluorescence (HTRF, Cisbio).

[5] = test system: Ba/F3 EML4-ALK WT cells; experiment: cells; assay type: cell-based, rodent; settings: Ba/F3 EML4-ALK, read-out: Ba/F3 EML-ALK WT (IC50 μM)
[6] = test system: H3122 induced lung cancer; experiment: In vivo xenograft evaluation for H3122 induced lung cancer; parameters: species or system nude mice (BALB/c nu/nu); settings: H3122 xenograft in nude mice, orally administered q.d.×14, FIG. 1
Excerpt: The nude mice (BALB/c nu/nu, female) used in this experiment were purchased from Charles River Japan, Inc. and raised and tested under SPF (Specific Pathogen Free) control. The human non-small cell lung cancer cell line H3122 maintained by Korea Research Institute of Chemical Technology was used in this experiment.
The female nude mice adapted to the laboratory were implanted with cancer. Particularly, H3122 cells grown to the appropriate size for passage were cut into 3×3×3 mm^3, which was transplanted (s.c.) under the right side of the nude mouse. When the size of the implanted cancer reached about 200 mm^3, administration of the compound of example 58 was started; this was the first day (day 1). For the control, 20% PEG 400+3% Tween 80 in DDW was orally administered. For the experimental group (7 mice/group), the compound was dissolved in the same solvent of the control, which was orally administered 14 times in total (q.d.×14). The size of the cancer was measured every 2-3 days after the administration using a caliper and the diameters (long diameter (a), short diameter (b)) of the cancer were measured. The size of the cancer (volume, V) was calculated according to mathematical formula 1. Volume (mm^3)=a×b^2/2 Mathematical Formula 1
(In the mathematical formula 1,
a represents the horizontal length of the cancer; and
b represents the vertical short length of the cancer).

Chain of ALK WT (Q9UM73 19-1620): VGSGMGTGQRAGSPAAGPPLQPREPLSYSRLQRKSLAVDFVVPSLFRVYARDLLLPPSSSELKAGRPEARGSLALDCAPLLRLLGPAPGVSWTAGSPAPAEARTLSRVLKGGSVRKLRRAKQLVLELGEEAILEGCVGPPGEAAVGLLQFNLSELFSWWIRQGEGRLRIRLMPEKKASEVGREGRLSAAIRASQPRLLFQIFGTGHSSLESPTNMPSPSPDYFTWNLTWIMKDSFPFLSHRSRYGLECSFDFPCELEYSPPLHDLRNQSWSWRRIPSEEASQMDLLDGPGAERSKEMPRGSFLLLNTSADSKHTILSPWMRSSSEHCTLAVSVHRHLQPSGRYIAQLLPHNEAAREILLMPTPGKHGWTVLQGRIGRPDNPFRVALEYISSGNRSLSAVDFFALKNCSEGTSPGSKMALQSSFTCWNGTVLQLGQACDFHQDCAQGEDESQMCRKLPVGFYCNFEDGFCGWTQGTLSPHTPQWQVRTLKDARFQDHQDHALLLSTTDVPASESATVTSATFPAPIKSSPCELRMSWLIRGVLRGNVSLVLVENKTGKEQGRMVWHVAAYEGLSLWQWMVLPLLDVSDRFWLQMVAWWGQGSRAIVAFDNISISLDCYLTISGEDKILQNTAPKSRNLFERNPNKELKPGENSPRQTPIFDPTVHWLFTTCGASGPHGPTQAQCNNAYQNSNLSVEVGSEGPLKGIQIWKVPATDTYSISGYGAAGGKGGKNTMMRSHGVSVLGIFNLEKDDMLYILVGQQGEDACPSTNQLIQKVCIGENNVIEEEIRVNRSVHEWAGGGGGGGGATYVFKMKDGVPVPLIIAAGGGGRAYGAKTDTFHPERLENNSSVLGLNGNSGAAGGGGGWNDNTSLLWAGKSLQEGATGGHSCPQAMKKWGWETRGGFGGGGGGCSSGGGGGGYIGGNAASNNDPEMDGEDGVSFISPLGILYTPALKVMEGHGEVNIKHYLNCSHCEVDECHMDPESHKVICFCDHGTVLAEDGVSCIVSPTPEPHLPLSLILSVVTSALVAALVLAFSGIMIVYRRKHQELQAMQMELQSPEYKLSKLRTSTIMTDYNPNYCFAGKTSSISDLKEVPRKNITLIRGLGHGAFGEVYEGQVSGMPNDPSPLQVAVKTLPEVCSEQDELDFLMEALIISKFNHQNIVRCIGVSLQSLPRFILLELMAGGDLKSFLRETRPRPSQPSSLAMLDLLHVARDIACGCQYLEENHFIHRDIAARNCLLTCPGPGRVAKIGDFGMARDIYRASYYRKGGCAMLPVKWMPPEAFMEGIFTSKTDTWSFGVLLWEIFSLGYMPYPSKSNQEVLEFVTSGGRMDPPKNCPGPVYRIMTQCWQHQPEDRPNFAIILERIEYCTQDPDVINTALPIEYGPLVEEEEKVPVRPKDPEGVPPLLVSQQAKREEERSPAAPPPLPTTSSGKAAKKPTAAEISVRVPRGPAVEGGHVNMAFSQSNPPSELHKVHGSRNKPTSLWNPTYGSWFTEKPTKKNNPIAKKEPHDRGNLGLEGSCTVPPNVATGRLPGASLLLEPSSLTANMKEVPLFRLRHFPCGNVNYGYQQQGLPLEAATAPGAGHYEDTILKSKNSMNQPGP

Structure (SMILES) | GI50 [1] | GI50 ([1]; Homo sapiens, NCI-H3122, 72 h) | GI50 [2] | GI50 [3] | IC50 [4] | IC50 [5] | size of the cancer (volume) [6]
COC(=O)CCNCCc1ccc(OC)c(Nc2ncc(Cl)c(Nc3ccccc3S(=O)(=O)C(C)C)n2)c1 [Example 24, methyl 3-(3-(5-chloro-4-(2-(isopropylsulfonyl)phenylamino)pyrimidine-2-ylamino)-4-methoxyphenethylamino)propanoate] | 0.09 µM | ≤ 0.1 µM | 660 nM | ≤ 1 µM |  |  | 
COc1ccc(CCN(CCO)CCO)cc1Nc1ncc(Cl)c(Nc2ccccc2S(=O)(=O)C(C)C)n1 [Example 39, 2,2′-(3-(5-chloro-4-(2-(isopropylsulfonyl)phenylamino)pyrimidine-2-ylamino)-4-methoxyphenethylazeindiyl)diethanol] |  | 0.93 µM | 870 nM | ≤ 1 µM |  |  | 
COc1cc(CCN)c(C)cc1Nc1ncc(Cl)c(Nc2ccccc2S(=O)(=O)C(C)C)n1 [Example 55, N2-(4-(2-aminoethyl)-2-methoxy-5-methylphenyl)-5-chloro-N4-(2-(isopropylsulfonyl)phenyl)pyrimidine-2,4-diamine] |  | 0.06 µM |  |  | 0.0027 µM |  | 
COc1cc(C(C)(C)CN)c(C)cc1Nc1ncc(Cl)c(Nc2ccccc2S(=O)(=O)C(C)C)n1 [Example 56, N2-(4-(1-amino-2-methylpropane-2-yl)-2-methoxy-5-methylphenyl)-5-chloro-N4-(2-(isopropylsulfonyl)phenyl)pyrimidine-2,4-diamine] |  | 0.053 µM |  |  | 0.0049 µM |  | 
COc1cc(CCN(C)C)c(C)cc1Nc1ncc(Cl)c(Nc2ccccc2S(=O)(=O)C(C)C)n1 [Example 58, 5-chloro-N2-(4-(2-(dimethylamino)ethyl)-2-methoxy-5-methylphenyl)-N4-(2-(isopropylsulfonyl)phenyl)pyrimidine-2,4-diamine] |  | 0.013 µM |  |  | 0.0014 µM | 0.01 µM | the effect of inhibiting cancer size was excellent, similar to LDK378
COc1cc(C(C)(C)CNC=O)c(C)cc1Nc1ncc(Cl)c(Nc2ccccc2S(=O)(=O)C(C)C)n1 [Example 59, N-(2-(4-((5-chloro-4-((2-(isopropylsulfonyl)phenyl)amino)pyrimidine-2-yl)amino)-5-methoxy-2-methylphenyl)-2-methylpropyl)formamide] |  | 0.063 µM |  |  | 0.0078 µM |  | 
CNCC(C)(C)c1cc(OC)c(Nc2ncc(Cl)c(Nc3ccccc3S(=O)(=O)C(C)C)n2)cc1C [Example 60, 5-chloro-N4-(2-(isopropylsulfonyl)phenyl)-N2-(2-methoxy-5-methyl-4-(2-methyl-1-(methylamino)propane-2-yl)phenyl)pyrimidine-2,4-diamine] |  | 0.041 µM |  |  | 0.0015 µM | 0.019 µM | 
COc1cc(CCNC=O)c(C)cc1Nc1ncc(Cl)c(Nc2ccccc2S(=O)(=O)C(C)C)n1 [Example 62, N-(4-((5-chloro-4-((2-(isopropylsulfonyl)phenyl)amino)pyrimidine-2-yl)amino)-5-methoxy-2-methylphenethyl)formamide] |  | 0.068 µM |  |  | 0.004 µM |  | 
CNCCc1cc(OC)c(Nc2ncc(Cl)c(Nc3ccccc3S(=O)(=O)C(C)C)n2)cc1C [Example 63, 5-chloro-N4-(2-(isopropylsulfonyl)phenyl)-N2-(2-methoxy-5-methyl-4-(2-(methylamino)ethyl)phenyl)pyrimidine-2,4-diamine] |  | 0.02 µM |  |  | 0.0015 µM |  | 
CNC(C)(C)c1cc(OC)c(Nc2ncc(Cl)c(Nc3ccccc3S(=O)(=O)C(C)C)n2)cc1C [Example 64, 5-chloro-N4-(2-(isopropylsulfonyl)phenyl)-N2-(2-methoxy-5-methyl-4-(2-(methylamino)propane-2-yl)phenyl)pyrimidine-2,4-diamine] |  | 0.029 µM |  |  | 0.0012 µM | 0.015 µM | 
COc1cc(C(C)(C)CN(C)C)c(C)cc1Nc1ncc(Cl)c(Nc2ccccc2S(=O)(=O)C(C)C)n1 [Example 65, 5-chloro-N2-(4-(1-(dimethylamino)-2-methylpropane-2-yl)-2-methoxy-5-methylphenyl)-N4-(2-(isopropylsulfonyl)phenyl)pyrimidine-2,4-diamine] |  | 0.026 µM |  |  | 0.0022 µM | 0.014 µM | 
COc1cc(C(C)(C)N(C)C)c(C)cc1Nc1ncc(Cl)c(Nc2ccccc2S(=O)(=O)C(C)C)n1 [Example 66, 5-chloro-N2-(4-(2-(dimethylamino)propane-2-yl)-2-methoxy-5-methylphenyl)-N4-(2-(isopropylsulfonyl)phenyl)pyrimidine-2,4-diamine] |  | 0.035 µM |  |  | 0.0028 µM |  | 
COc1cc(CN(C)C)c(C)cc1Nc1ncc(Cl)c(Nc2ccccc2S(=O)(=O)C(C)C)n1 [Example 70, 5-chloro-N2-(4-((dimethylamino)methyl)-2-methoxy-5-methylphenyl)-N4-(2-(isopropylsulfonyl)phenyl)pyrimidine-2,4-diamine] |  | 0.037 µM |  |  |  | 0.021 µM | 
CNCc1cc(OC)c(Nc2ncc(Cl)c(Nc3ccccc3S(=O)(=O)C(C)C)n2)cc1C [Example 72, 5-chloro-N4-(2-(isopropylsulfonyl)phenyl)-N2-(2-methoxy-5-methyl-4-((methylamino)methyl)phenyl)pyrimidine-2,4-diamine] |  | 0.025 µM |  |  | 0.00174 µM | 0.015 µM | 
C=C(C)c1cc(OCC)c(Nc2ncc(Cl)c(Nc3ccccc3S(=O)(=O)C(C)C)n2)cc1CCN [Example 74, N2-(5-(2-aminoethyl)-2-ethoxy-4-(prop-1-ene-2-yl)phenyl)-5-chloro-N4-(2-(isopropylsulfonyl)phenyl)pyrimidine-2,4-diamine] |  | 0.77 µM |  |  |  | 0.36 µM | 
C=C(C)c1cc(OC)c(Nc2ncc(Cl)c(Nc3ccccc3S(=O)(=O)C(C)C)n2)cc1CCN [Example 75, N2-(5-(2-aminoethyl)-2-methoxy-4-(prop-1-ene-2-yl)phenyl)-5-chloro-N4-(2-(isopropylsulfonyl)phenyl)pyrimidine-2,4-diamine] |  | 0.23 µM |  |  |  | 0.11 µM | 
Cc1cc(Nc2ncc(Cl)c(Nc3ccccc3S(=O)(=O)C(C)C)n2)c(OC(C)C)cc1C1CCNCC1 [LDK378, Ceritinib, reference compound] |  |  |  |  |  |  | the effect of inhibiting cancer size was excellent, similar to LDK378
